Patent US11286243B2 (GLOBAL BLOOD THERAPEUTICS, INC., priority 2018, dated 2022)

Target: T1, human ferroportin (Homo sapiens, UniProt Q9NP59)
T1 construct: luciferase reporter (probably NanoLuc: read with the Nano-Glo Luciferase Assay System); expressed in transfected cells; host or cells: CHO cells, stably transfected, doxycycline-inducible expression
T1 sequence (Q9NP59 1-571): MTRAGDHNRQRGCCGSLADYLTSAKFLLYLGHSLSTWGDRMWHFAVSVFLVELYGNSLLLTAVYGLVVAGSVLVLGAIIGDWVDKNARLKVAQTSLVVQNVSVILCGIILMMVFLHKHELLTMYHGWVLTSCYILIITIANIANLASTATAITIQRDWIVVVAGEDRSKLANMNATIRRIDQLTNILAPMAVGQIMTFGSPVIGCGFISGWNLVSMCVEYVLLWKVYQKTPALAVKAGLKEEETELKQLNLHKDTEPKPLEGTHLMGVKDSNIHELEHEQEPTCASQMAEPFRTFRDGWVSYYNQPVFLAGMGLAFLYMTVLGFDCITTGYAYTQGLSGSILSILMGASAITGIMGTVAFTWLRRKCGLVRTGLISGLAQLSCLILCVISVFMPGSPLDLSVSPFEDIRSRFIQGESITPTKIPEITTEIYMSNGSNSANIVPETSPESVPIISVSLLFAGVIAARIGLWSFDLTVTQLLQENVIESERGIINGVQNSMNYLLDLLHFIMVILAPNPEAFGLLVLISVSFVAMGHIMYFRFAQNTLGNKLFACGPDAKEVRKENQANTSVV
Assay: In-vitro ferroportin internalization assay (luciferase reporter)
Type: cell-based
Conditions: average pEC50; stably-transfected CHO cell line expressing human ferroportin tagged to a luciferase reporter; 6 h incubation with test compounds
Summary of the method: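 CHO cells stably expressing human ferroportin fused to a luciferase reporter were plated 24 h with ferric ammonium citrate, then induced with doxycycline for 24 h. Compounds in DMSO were incubated with cells for 6 h before luciferase readout by Nano-Glo. Results are reported as average pEC50.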

Row | pEC50 | SMILES
1 | 5.1 | Fc1cccnc1CNc1nccc2oc(CCNCCc3ncc(CC4CC4)[nH]3)nc12 [Compound 63, 2-[2-({2-[5-(cyclopropylmethyl)-1H-imidazol-2-yl]ethyl}amino)ethyl]-N-[(3-fluoropyridin-2-yl)methyl]-[1,3]oxazolo[4,5-c]pyridin-4-amine]
2 | 6.2 | Fc1cccnc1CNc1ncnc2sc(CCNCCc3ncc(-c4ccccn4)[nH]3)nc12 [Compound 65, N-[(3-fluoropyridin-2-yl)methyl]-2-[2-({2-[5-(pyridin-2-yl)-1H-imidazol-2-yl]ethyl}amino)ethyl]-[1,3]thiazolo[5,4-d]pyrimidin-7-amine]
3 | 6.2 | Fc1cccc(-c2cnc(CCNCCc3nc4c(NCc5ncccc5F)ncnc4s3)[nH]2)c1 [Compound 67, 2-[2-({2-[5-(3-fluorophenyl)-1H-imidazol-2-yl]ethyl}amino)ethyl]-N-[(3-fluoropyridin-2-yl)methyl]-[1,3]thiazolo[5,4-d]pyrimidin-7-amine]
4 | 5.2 | Cc1ncc(-c2cc(CNCCc3nc4c(NCc5ncccc5F)ncnc4s3)c(Cl)s2)[nH]1 [Compound 69, 2-[2-({[2-chloro-5-(2-methyl-1H-imidazol-5-yl)thiophen-3-yl]methyl}amino)ethyl]-N-[(3-fluoropyridin-2-yl)methyl]-[1,3]thiazolo[5,4-d]pyrimidin-7-amine]
5 | 5.6 | Cc1nc(-c2ccc(Cl)s2)c(CNCCc2nc3c(NCc4ncccc4F)ncnc3s2)[nH]1 [Compound 70, 2-[2-({[4-(5-chlorothiophen-2-yl)-2-methyl-1H-imidazol-5-yl]methyl}amino)ethyl]-N-[(3-fluoropyridin-2-yl)methyl]-[1,3]thiazolo[5,4-d]pyrimidin-7-amine]
6 | 6.4 | Fc1cccnc1CNc1ncnc2sc(CCNCCc3ncc(-c4ccc(Cl)s4)[nH]3)nc12 [Compound 72, 2-[2-({2-[5-(5-chlorothiophen-2-yl)-1H-imidazol-2-yl]ethyl}amino)ethyl]-N-[(3-fluoropyridin-2-yl)methyl]-[1,3]thiazolo[5,4-d]pyrimidin-7-amine]
7 | 7.8 | Fc1cccnc1CNc1ncnc2sc([C@H](F)CNCCc3nc4ccccc4[nH]3)nc12 [Compound 77, 2-[(1R)-2-{[2-(1H-1,3-benzodiazol-2-yl)ethyl]amino}-1-fluoroethyl]-N-[(3-fluoropyridin-2-yl)methyl]-[1,3]thiazolo[5,4-d]pyrimidin-7-amine]
8 | <5 | Fc1cccnc1CNc1ncnc2sc(CCNCCc3ncc(-c4ccncc4)[nH]3)nc12 [Compound 79, N-[(3-fluoropyridin-2-yl)methyl]-2-[2-({2-[5-(pyridin-4-yl)-1H-imidazol-2-yl]ethyl}amino)ethyl]-[1,3]thiazolo[5,4-d]pyrimidin-7-amine]
9 | 6.3 | Fc1cccnc1CNc1nccc2oc(C(F)(F)CNCCc3nc4ccccc4[nH]3)nc12 [Compound 81, 2-(2-{[2-(1H-1,3-benzodiazol-2-yl)ethyl]amino}-1,1-difluoroethyl)-N-[(3-fluoropyridin-2-yl)methyl]-[1,3]oxazolo[4,5-c]pyridin-4-amine]
10 | 7.1 | Oc1nc(NCc2ncccc2F)c2nc([C@H](F)CNCCc3nc4ccccc4[nH]3)sc2n1 [Compound 83, 2-[(1R)-2-{[2-(1H-1,3-benzodiazol-2-yl)ethyl]amino}-1-fluoroethyl]-7-{[(3-fluoropyridin-2-yl)methyl]amino}-[1,3]thiazolo[5,4-d]pyrimidin-5-ol]

More lines, now with the values behind:

Row | SMILES | pEC50
11 | Cc1nc(CCNCCc2nc3c(NCc4ncccc4F)ncnc3s2)[nH]c1-c1ccccc1 [Compound 64, N-[(3-fluoropyridin-2-yl)methyl]-2-(2-{[2-(4-methyl-5-phenyl-1H-imidazol-2-yl)ethyl]amino}ethyl)-[1,3]thiazolo[5,4-d]pyrimidin-7-amine] | 7
12 | Fc1ccc(-c2cnc(CCNCCc3nc4c(NCc5ncccc5F)ncnc4s3)[nH]2)cc1 [Compound 68, 2-[2-({2-[5-(4-fluorophenyl)-1H-imidazol-2-yl]ethyl}amino)ethyl]-N-[(3-fluoropyridin-2-yl)methyl]-[1,3]thiazolo[5,4-d]pyrimidin-7-amine] | 5.8
13 | Fc1cccnc1CNc1ncnc2sc(CC3CCCC(Cc4nc5ccccc5[nH]4)N3)nc12 (centres unmarked) [Compound 71, 2-({6-[(1H-1,3-benzodiazol-2-yl)methyl]piperidin-2-yl}methyl)-N-[(3-fluoropyridin-2-yl)methyl]-[1,3]thiazolo[5,4-d]pyrimidin-7-amine] | 5.2
14 | Cc1nc(CCNCCc2nc3c(NCc4ncccc4F)nccc3s2)[nH]c1C [Compound 73, 2-(2-{[2-(4,5-dimethyl-1H-imidazol-2-yl)ethyl]amino}ethyl)-N-[(3-fluoropyridin-2-yl)methyl]-[1,3]thiazolo[4,5-c]pyridin-4-amine] | 7.6
15 | Fc1cccnc1CNc1nccc2oc([C@H](F)CNCCc3nc4ccccc4[nH]3)nc12 [Compound 74, 2-[(1R)-2-{[2-(1H-1,3-benzodiazol-2-yl)ethyl]amino}-1-fluoroethyl]-N-[(3-fluoropyridin-2-yl)methyl]-[1,3]oxazolo[4,5-c]pyridin-4-amine] | 6.9
16 | Fc1cccnc1CNc1nccc2oc([C@@H](F)CNCCc3nc4ccccc4[nH]3)nc12 [Compound 75, 2-[(1 S)-2-{[2-(1H-1,3-benzodiazol-2-yl)ethyl]amino}-1-fluoroethyl]-N-[(3-fluoropyridin-2-yl)methyl]-[1,3]oxazolo[4,5-c]pyridin-4-amine] | 7.1
17 | Cc1nc(CCNCCc2nc3c(NCc4ncccc4F)nc(O)nc3s2)[nH]c1C [Compound 76, 2-(2-{[2-(4,5-dimethyl-1H-imidazol-2-yl)ethyl]amino}ethyl)-7-{[(3-fluoropyridin-2-yl)methyl]amino}-[1,3]thiazolo[5,4-d]pyrimidin-5-ol] | 8.1
18 | Cc1nc(Cc2ccccc2)c(CNCCc2nc3c(NCc4ncccc4F)nccc3o2)[nH]1 [Compound 78, 2-(2-{[(4-benzyl-2-methyl-1H-imidazol-5-yl)methyl]amino}ethyl)-N-[(3-fluoropyridin-2-yl)methyl]-[1,3]oxazolo[4,5-c]pyridin-4-amine] | <5
19 | O=C(NCc1ccc2[nH]c(CCNCCc3nc4c(NCc5ncccc5F)ncnc4s3)nc2c1)c1ccc2c(c1)C1(OC2=O)c2ccc(O)cc2Oc2cc(O)ccc21 [Compound 80] | <5
20 | Fc1cccnc1CNc1nccc2sc([C@H](F)CNCCc3nc4ccccc4[nH]3)nc12 [Compound 82, 2-[(1R)-2-{[2-(1H-1,3-benzodiazol-2-yl)ethyl]amino}-1-fluoroethyl]-N-[(3-fluoropyridin-2-yl)methyl]-[1,3]thiazolo[4,5-c]pyridin-4-amine] | 6.4
